According to US20190106460A1, “BINDING INHIBITORS OF THE BETA. TRANSDUCIN REPEAT-CONTAINING PROTEIN” (priority 2011, published 2019):
Non-standard residues stand in square brackets, D forms with d. Residues, ends and D or L forms follow the SMILES beside them. Groups on a side chain read outwards from the residue. *: point of attachment. X3 = CC(C)CCC[C@@H](C)[C@H]1CCC2C3CC=C4C[C@@H](OC(=O)*)CC[C@]4(C)C3CC[C@@]21C; Benzenesulfonyl(4-OMe) = COc1ccc(S(=O)(=O)*)cc1; Phe(3-F) = N[C@@H](Cc1cccc(F)c1)C(=O)O; Ahx = NCCCCCC(=O)O

Legend:
Format in all cases: cell-based
[1] = tested on: PDCD4 in MCF7 cells; test: In-cell western assay for PDCD4 accumulation
Procedure: In-Cell Western Assay for PDCD4 Accumulation.
To measure this an in-cell western assay was used and the peptidomimetics were delivered to the cells by nucleofection.
MCF7 cells were grown in 10 cm dishes in 10 ml DMEM+10% FBS and 1% Pen/Strep at 37° C./5% CO2. On the day of nucleofection, the dish was washed with 90% confluent MCF7 cells with 5 ml PBS, then 3 ml of Trypsin/EDTA was added and incubated at 37° C./5% CO2 for approximately 5 mins until the cells detached from the plastic. 7 ml of normal growth media was added and the number of cells present was counted using a haemocytometer.
The cells were centrifuged cells at 90 g for 10 mins at RT and the supernatant was removed. 100 μl of Nucleofection Buffer V+ Supplement was added (Lonza Biologics Cat no VCA-1003) per 8×10^5 cells, and the cells were added to peptidomimetics dissolved in <3% DMSO.
The cell/peptidomimetic mix was added to cuvettes supplied for the nucleofector and the sample was nucleofected using the recommended MCF7 programme for high cell viability (i.e. E-014). 500 μl of TPA (12-O-tetradecanoylphorbol-13-acetate)-supplemented growth media (i.e. DMEM/10% FBS/1% Pen-Strep/10 nM TPA) was added to the cuvette and 100 μl of this solution was transferred to a well of a 96 well plate and incubated at 37° C./5% CO2 for 8 hours.
The celled were fixed by removing the growth media, adding 3.7% Formaldehyde in PBS and incubating at RT for 20 mins. The plate was washed three times in PBS. And the cells were permeabilised by washing 5× for 5 mins each in PBS+0.1% Triton X-100.
The cells were blocked by adding 3% BSA in PBS-Tween to the cells and incubating at RT for 1.5 hours. An anti-PDCD4 antibody (Abcam cat no: ab80590) was added at a concentration of 1:1000 in 3% BSA in PBS-T (50 ul/well) and incubated at RT for 2.5 hours. The cells were washed 5× for 5 mins each with PBS-T before the secondary antibody (LiCor Biosciences Donkey Anti-Rabbit IRDye 800CW cat no 926-32213) was added at a concentration of 1:1000, along with the DNA stain DRAQ5 at a concentration of 1:10000, in 3% BSA in PBS-T (50 ul/well) and incubated at RT for 1 hour, protected from light.
The cells were washed cells 5× for 5 mins each with PBS-T and all the liquid was removed from the wells before the plate was read on the LiCor Biosciences Odyssey at 700 nm and 800 nm. The reading was normalised in the 800 nm channel to that in the 700 nm channel. The data are shown in FIG. 12, where DMSO was used as a negative control and 20 μM MG132 was used as a positive control. The data is presented as percentage activity with DMSO=0% and […]=100% activity. Error bars represent standard deviation from 3 replicates.
The compounds shown in FIGS. 14A-14B were synthesised to improve cell permeability. […] FIG. 16 compares the round II compounds (shown in FIGS. 14A-14B) with UBP036 in this assay. […] Inhibition of βTrCP, which is responsible for the degradation of both PDCD4 and β-catenin, causes a concomitant stabilisation and accumulation of levels of these proteins which can be measured by in cell western assay.

[2] = tested on: MCF7:GFP-PDCD4^WT; test: Fluorescence reporter assay for PDCD4 accumulation, wild type
Procedure: Fluorescence Reporter Assay for PDCD4 Accumulation
This assay uses two stable cell lines expressing PDCD4 fused to a GFP tag.
The two stable cell lines MCF7:GFP-PDCD4^WT and MCF7:GFP-PDCD4^S71A/S76Awere grown in 10 ml DMEM+10% FBS and 1% Pen/Strep supplemented with 2 mg/ml Geneticin at 37° C./5% CO2. These cell lines were nucleofected as described above except for the additional supplementation of all media with 2 mg/ml Geneticin.
Fluorescent Reporter Assay
The cells were fixed by removing the growth media and adding 3.7% Formaldehyde in PBS to the cells. The cells were then incubated at RT for 20 mins and the plates washed 3× in PBS.
DRAQ5 DNA stain was added to the cells in PBS at a concentration of 1:10000 and incubated at RT for 1 hour protecting from light. The plate was washed 3× in PBS and read on the Perkin Elmer OPERA platform using the nuclei counting algorithm F in both the 488 nm channel (GFP) and 640 nm channel (DRAQ5). DMSO was used as a negative control and 10 μM MG132 was used as a positive control. Error bars represent standard deviation from 6 replicates. The data are expressed as percentage activity with DMSO (WT)=0% and 10 μM MG132 (WT)=100% activity.
This confirms that the stabilisation resulting from the compounds is dependent on the βTrCP/PDCD4 interaction and is not due to another mechanism such as a global increase in protein production.

[3] = tested on: LNCaP (prostate cancer); test: xCELLigence cell viability / proliferation, LNCaP
Procedure: Example 9—Cell Based Activity of Cell Permeable Compounds on the xCELLigence Platform
The effects of the compounds shown in FIGS. 14A-14B were tested on cancer cell lines MCF7 (breast cancer) and LNCaP (prostate cancer) using the xCELLigence platform (http://www.roche-applied-science.com/sis/xcelligence/ezhome.html). This method of measuring cell viability via measuring cell index is known in the art.
Different doses of the compounds were tested on MCF7 cells to see if there would be an effect on their cell viability.
The control compound was compared to its partner active compound (UBP037).
xCELLigence Method • Before starting the experiment add 50 μL of medium (RPMI 1640, 10% fetal bovine serum, 100 units/mL penicillin, 100 ug/mL streptomycin, and 2 mmol/L glutamine, all from GIBCO) to each well of 96 well E-plate (Roche) and place the plate in the xCELLigence platform to measure the background. • LNCaP/PNT-1 cells are seeded (LNCaPs 80000 cells/well; PNT1 3000 cells/well) in the plate in complete medium and equilibrated for 60 mins at RT before returning to the xCELLigence platform and incubating at 37° C./5% CO2. • 24 hrs after seeding, remove 100 μL of medium was removed from each well and cells were treated with compounds or DMSO diluted in 100 μL of OptiMEM (GIBCO). • Replace the plate in the xCELLigence platform • Cells growth can then be monitored in real-time by the cell index profile on the xCELLigence readout screen • Cell growth can be expressed as normalized cell index and doubling time/slope calculated using the RTCA software.

Q: What does the source list for `COc1ccc(S(=O)(=O)N[C@H](CC(=O)O)C(=O)N[C@@H](CCC(=O)O)C(=O)NCC(=O)N[C@@H](Cc2cccc(F)c2)C(=O)N[C@@H](Cc2c[nH]c3ccccc23)C(=O)N[C@@H](CCC(=O)O)C(=O)NCCCCCC(=O)N[C@@H](CCCCNC(=O)CCCCCNC(=O)O[C@H]2CC[C@@]3(C)C(=CCC4C3CC[C@@]3(C)C4CC[C@@H]3[C@H](C)CCCC(C)C)C2)C(N)=O)cc1` (stereo partly shown) [UBP036, 4-(MeO)PhSO2-dEGF(3F)WE-Ahx-K(Ahx-Chol)-NH2] ({Benzenesulfonyl(4-OMe)}-[dD]EG[Phe(3-F)]WE[Ahx]K([Ahx-X3])-NH2)?
A: accumulation of PDCD4, in cell western ([1]; MCF7, treatment with cell permeable compound): accumulation of PDCD4; cell based activity ([1]; general statement, different delivery vehicles): display cell based activity; accumulation of GFP-PDCD4, fluorescent reporter assay [2]: GFP-PDCD4 accumulation; cell growth / proliferation, xCELLigence [3]: inhibit the growth
